Here are results for 18 compounds from patent US20260166039A1 (SCHRÖDINGER, INC., priority 2022, published 2026).

Broadly, the IC50 is the midpoint of a concentration-inhibition curve.

Where two headings read alike, the source gives them in different places.

Experiment [1] concerns phosphorylation of Cdc2 Y15 (Wee1 substrate) in A427 cells. Nature of the experiment: Phosphorylated Cdc2 MSD Electrochemiluminescence Assay. The class given is cell-based. As to conditions: Homo sapiens. Put shortly: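 A427 cells (RPMI 1640, 10% FBS) treated 20 h after plating with 3-fold serial compound dilutions, in duplicate, 37 °C, 5% CO2; total incubation 6 h. Lysate Cdc2 pY15 read by MSD electrochemiluminescence sandwich immunoassay; % remaining signal normalised to DMSO (high) and reference Wee1 inhibitor (low) controls.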

A further experiment has as its target T1, Wee1 kinase domain (Homo sapiens, UniProt P30291).
T1 construct: Wee1 kinase domain was purchased from Carna (catalog #05-177); purchased Carna 05-177
The experiment is described as follows: Wee1 Kinase Biochemical Assay (ADP-Glo). As to conditions: 1 nM Wee1 enzyme, 15 uM ATP. Put shortly:
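Kinase domain (1 nM) incubated 4 h at 25 °C with 15 uM ATP and 2 ng/mL Poly(Lys,Tyr 4:1) in 40 mM Tris-HCl, 20 mM MgCl2, 0.1 mg/mL BSA, 2 mM DTT. ADP formation read by ADP-Glo luminescence; percent inhibition normalized to DMSO and saturating reference-inhibitor controls.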
Background: ADP-Glo first removes unused ATP, then detects ADP through luciferase.

Where [2] appears, read: A-427, class symbols, read-out: A427 pCDC2 MSD IC50.
[3] abbreviates: class symbols, 4 hours at 25° C.

T1 sequence (P30291 299-569 limits assumed): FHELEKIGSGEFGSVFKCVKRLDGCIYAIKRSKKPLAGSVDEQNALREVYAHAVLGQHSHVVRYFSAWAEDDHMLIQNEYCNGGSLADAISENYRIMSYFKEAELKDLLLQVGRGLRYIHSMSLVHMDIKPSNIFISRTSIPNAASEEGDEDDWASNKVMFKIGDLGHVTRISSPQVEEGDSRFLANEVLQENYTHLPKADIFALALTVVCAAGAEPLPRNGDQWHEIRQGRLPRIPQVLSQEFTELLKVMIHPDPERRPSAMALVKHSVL

In the case of `CN1CCC(c2ccc(Nc3ncc4c(n3)N(c3cccc(N=S(C)(C)=O)c3)[C@@H]3CC(C)(C)OC[C@]43C)cn2)CC1` [Example 710, dimethyl((3-((4bR,8aR)-4b,7,7-trimethyl-2-((6-(1-methylpiperidin-4-yl)pyridin-3-yl)amino)-4b,7,8,8a-tetrahydropyrano[3′,4′:4,5]pyrrolo[2,3-d]pyrimidin-9(5H)-yl)phenyl)imino)-16-sulfanone], the IC50 was 1000 to 10000 nM in experiment [1] (setting [2]) and below 10 nM on Wee1 kinase domain (setting [3]).

On to `CN1C[C@H]2C[C@@H]1CN2c1ccc(Nc2ncc3c(n2)N(c2cccc(N=S(C)(C)=O)c2)[C@@H]2CC(C)(C)OC[C@]32C)cc1` [Example 713, dimethyl((3-((4bR,8aR)-4b,7,7-trimethyl-2-((4-((1R,4R)-5-methyl-2,5-diazabicyclo[2.2.1]heptan-2-yl)phenyl)amino)-4b,7,8,8a-tetrahydropyrano[3′,4′:4,5]pyrrolo[2,3-d]pyrimidin-9(5H)-yl)phenyl)imino)-16-sulfanone], for which the values for the IC50 (in experiment [1] (setting [2]); at Wee1 kinase domain (setting [3])) were 100 to 1000 nM and below 10 nM, respectively.

Regarding `CN1CCC(n2cc(Nc3ncc4c(n3)N(c3cccc(N=S(C)(C)=O)c3)[C@@H]3CC(C)(C)OC[C@]43C)cn2)CC1` [Example 716, dimethyl((3-((4bR,8aR)-4b,7,7-trimethyl-2-((1-(1-methylpiperidin-4-yl)-1H-pyrazol-4-yl)amino)-4b,7,8,8a-tetrahydropyrano[3′,4′:4,5]pyrrolo[2,3-d]pyrimidin-9(5H)-yl)phenyl)imino)-16-sulfanone], the figures for the half-maximal inhibitory concentration (IC50) (in experiment [1] (setting [2]); on Wee1 kinase domain (setting [3])) were 1000 to 10000 nM and below 10 nM, respectively.

With `CC1(C)C[C@H]2N(c3cccc([C@H]4COCCN4)n3)c3nc(Nc4ccc(N5CCOCC5)cc4)ncc3[C@@]2(C)CO1` [Example 731, (4bR,8aR)-4b,7,7-trimethyl-9-(6-((S)-morpholin-3-yl)pyridin-2-yl)-N-(4-morpholinophenyl)-4b,5,7,8,8a,9-hexahydropyrano[3′,4′:4,5]pyrrolo[2,3-d]pyrimidin-2-amine], the IC50 in experiment [1] (setting [2]) was 100 to 1000 nM; against Wee1 kinase domain (setting [3]), below 10 nM.

On to `CC1(C)C[C@H]2N(c3cccc([C@@H]4COCCN4)n3)c3nc(Nc4ccc(N5CCOCC5)cc4)ncc3[C@@]2(C)CO1` [Example 734, (4bR,8aR)-4b,7,7-trimethyl-9-(6-((R)-morpholin-3-yl)pyridin-2-yl)-N-(4-morpholinophenyl)-4b,5,7,8,8a,9-hexahydropyrano[3′,4′:4,5]pyrrolo[2,3-d]pyrimidin-2-amine], for which the IC50 is below 100 nM in experiment [1] (setting [2]) and below 10 nM on Wee1 kinase domain (setting [3]).

On to `CC1(C)C[C@H]2N(c3cccc([C@H]4CNCCO4)n3)c3nc(Nc4ccc(N5CCOCC5)cc4)ncc3[C@@]2(C)CO1` [Example 737, (4bR,8aR)-4b,7,7-trimethyl-9-(6-((R)-morpholin-2-yl)pyridin-2-yl)-N-(4-morpholinophenyl)-4b,5,7,8,8a,9-hexahydropyrano[3′,4′:4,5]pyrrolo[2,3-d]pyrimidin-2-amine], for which the IC50 in experiment [1] (setting [2]) is 100 to 1000 nM; against Wee1 kinase domain (setting [3]), below 10 nM.

On to `CN[C@H](c1cccc(N2c3nc(Nc4ccc(N5CCN(C)CC5)cc4)ncc3[C@@]3(C)COC(C)(C)C[C@@H]23)n1)C(F)(F)F` [Example 755, (4bR,8aR)-4b,7,7-trimethyl-N-(4-(4-methylpiperazin-1-yl)phenyl)-9-(6-((R)-2,2,2-trifluoro-1-(methylamino)ethyl)pyridin-2-yl)-4b,5,7,8,8a,9-hexahydropyrano[3′,4′:4,5]pyrrolo[2,3-d]pyrimidin-2-amine], for which the IC50 in experiment [1] (setting [2]) was 100 to 1000 nM; at Wee1 kinase domain (setting [3]), below 10 nM.

Regarding `CN[C@@H](c1cccc(N2c3nc(Nc4ccc(N5CCN(C)CC5)cc4)ncc3[C@@]3(C)COC(C)(C)C[C@@H]23)n1)C(F)(F)F` [Example 756, (4bR,8aR)-4b,7,7-trimethyl-N-(4-(4-methylpiperazin-1-yl)phenyl)-9-(6-((S)-2,2,2-trifluoro-1-(methylamino)ethyl)pyridin-2-yl)-4b,5,7,8,8a,9-hexahydropyrano[3′,4′:4,5]pyrrolo[2,3-d]pyrimidin-2-amine], the values for the half-maximal inhibitory concentration (IC50) (in experiment [1] (setting [2]); on Wee1 kinase domain (setting [3])) were 100 to 1000 nM and below 10 nM, respectively.

For the compound `CNCc1cccc(N2c3nc(NC(=O)[C@@H]4C[C@H]4c4ccccc4)ncc3[C@@]3(C)COC(C)(C)C[C@@H]23)n1` [Example 760, (1R,2R)-2-phenyl-N-((4bR,8aR)-4b,7,7-trimethyl-9-(6-((methylamino)methyl)pyridin-2-yl)-4b,5,7,8,8a,9-hexahydropyrano[3′,4′:4,5]pyrrolo[2,3-d]pyrimidin-2-yl)cyclopropane-1-carboxamide], the values for the IC50 (in experiment [1] (setting [2]); on Wee1 kinase domain (setting [3])) were 100 to 1000 nM and below 10 nM, respectively.

Turning to `CNCc1cccc(N2c3nc(NC(=O)[C@@H]4C[C@H]4c4cnn(C)c4)ncc3[C@@]3(C)COC(C)(C)C[C@@H]23)n1` [Example 764, (1R,2R)-2-(1-methyl-1H-pyrazol-4-yl)-N-((4bR,8aR)-4b,7,7-trimethyl-9-(6-((methylamino)methyl)pyridin-2-yl)-4b,5,7,8,8a,9-hexahydropyrano[3′,4′:4,5]pyrrolo[2,3-d]pyrimidin-2-yl)cyclopropane-1-carboxamide], the IC50 in experiment [1] (setting [2]) is 100 to 1000 nM; against Wee1 kinase domain (setting [3]) it was below 10 nM.

For the compound `CNCc1cccc(N2c3nc(NC(=O)[C@@H]4C[C@H]4c4cccnc4)ncc3[C@@]3(C)COC(C)(C)C[C@@H]23)n1` [Example 768, (1R,2R)-2-(pyridin-3-yl)-N-((4bR,8aR)-4b,7,7-trimethyl-9-(6-((methylamino)methyl)pyridin-2-yl)-4b,5,7,8,8a,9-hexahydropyrano[3′,4′:4,5]pyrrolo[2,3-d]pyrimidin-2-yl)cyclopropane-1-carboxamide], the IC50 in experiment [1] (setting [2]) was 100 to 1000 nM; at Wee1 kinase domain (setting [3]), below 10 nM.

In the case of `CN=[S@](C)(=O)c1cccc(N2c3nc(Nc4ccc(N5CC6(CN(C)C6)C5)cc4)ncc3[C@@]3(C)COC(C)(C)C[C@@H]23)n1` [Example 770, (R)-methyl(methylimino)(6-((4bR,8aR)-4b,7,7-trimethyl-2-((4-(6-methyl-2,6-diazaspiro[3.3]heptan-2-yl)phenyl)amino)-4b,7,8,8a-tetrahydropyrano[3′,4′:4,5]pyrrolo[2,3-d]pyrimidin-9(5H)-yl)pyridin-2-yl)-16-sulfanone], the half-inhibitory concentration (IC50) is 100 to 1000 nM in experiment [1] (setting [2]) and below 10 nM against Wee1 kinase domain (setting [3]).

For the compound `CN=[S@@](C)(=O)c1cccc(N2c3nc(Nc4ccc(N5CC6(CN(C)C6)C5)cc4)ncc3[C@@]3(C)COC(C)(C)C[C@@H]23)n1` [Example 771, (S)-methyl(methylimino)(6-((4bR,8aR)-4b,7,7-trimethyl-2-((4-(6-methyl-2,6-diazaspiro[3.3]heptan-2-yl)phenyl)amino)-4b,7,8,8a-tetrahydropyrano[3′,4′:4,5]pyrrolo[2,3-d]pyrimidin-9(5H)-yl)pyridin-2-yl)-16-sulfanone], the half-maximal inhibitory concentration (IC50) was 100 to 1000 nM in experiment [1] (setting [2]) and below 10 nM at Wee1 kinase domain (setting [3]).

Consider `CN1C[C@@H]2C[C@H]1CN2c1ccc(Nc2ncc3c(n2)N(c2cccc(P(C)(C)=O)n2)[C@@H]2CC(C)(C)OC[C@]32C)cc1` [Example 777, dimethyl(6-((4bR,8aR)-4b,7,7-trimethyl-2-((4-((1S,4S)-5-methyl-2,5-diazabicyclo[2.2.1]heptan-2-yl)phenyl)amino)-4b,7,8,8a-tetrahydropyrano[3′,4′:4,5]pyrrolo[2,3-d]pyrimidin-9(5H)-yl)pyridin-2-yl)phosphine oxide], for which the IC50 in experiment [1] (setting [2]) was 1000 to 10000 nM; against Wee1 kinase domain (setting [3]) it was below 10 nM.

Consider `CN1C[C@H]2C[C@@H]1CN2c1ccc(Nc2ncc3c(n2)N(c2cccc(P(C)(C)=O)n2)[C@@H]2CC(C)(C)OC[C@]32C)cc1` [Example 778, dimethyl(6-((4bR,8aR)-4b,7,7-trimethyl-2-((4-((1R,4R)-5-methyl-2,5-diazabicyclo[2.2.1]heptan-2-yl)phenyl)amino)-4b,7,8,8a-tetrahydropyrano[3′,4′:4,5]pyrrolo[2,3-d]pyrimidin-9(5H)-yl)pyridin-2-yl)phosphine oxide], for which the 50% inhibitory concentration (IC50) in experiment [1] (setting [2]) was 100 to 1000 nM; at Wee1 kinase domain (setting [3]), below 10 nM.

As to `CC1(C)C[C@H]2N(c3cccc(P(C)(C)=O)n3)c3nc(Nc4ccn([C@H]5CCOC5)c(=O)c4)ncc3[C@@]2(C)CO1` [Example 782, 4-(((4bR,8aR)-9-(6-(dimethylphosphoryl)pyridin-2-yl)-4b,7,7-trimethyl-4b,5,7,8,8a,9-hexahydropyrano[3′,4′:4,5]pyrrolo[2,3-d]pyrimidin-2-yl)amino)-1-((S)-tetrahydrofuran-3-yl)pyridin-2(1H)-one], the half-inhibitory concentration (IC50) was below 100 nM in experiment [1] (setting [2]) and below 10 nM against Wee1 kinase domain (setting [3]).

Take `CC1(C)C[C@H]2N(c3cccc(P(C)(C)=O)n3)c3nc(Nc4ccn([C@@H]5CCOC5)c(=O)c4)ncc3[C@@]2(C)CO1` [Example 783, 4-(((4bR,8aR)-9-(6-(dimethylphosphoryl)pyridin-2-yl)-4b,7,7-trimethyl-4b,5,7,8,8a,9-hexahydropyrano[3′,4′:4,5]pyrrolo[2,3-d]pyrimidin-2-yl)amino)-1-((R)-tetrahydrofuran-3-yl)pyridin-2(1H)-one]: the 50% inhibitory concentration (IC50) in experiment [1] (setting [2]) is below 100 nM; on Wee1 kinase domain (setting [3]), below 10 nM.

In the case of `CC[C@@]1(O)CCc2ccc(N3c4nc(Nc5ccn(C6CCN(C)CC6)c(=O)c5)ncc4[C@@]4(C)COC(C)(C)C[C@@H]34)nc21` [Example 812, 4-(((4bR,8aR)-9-((R)-7-ethyl-7-hydroxy-6,7-dihydro-5H-cyclopenta[b]pyridin-2-yl)-4b,7,7-trimethyl-4b,5,7,8,8a,9-hexahydropyrano[3′,4′:4,5]pyrrolo[2,3-d]pyrimidin-2-yl)amino)-1-(1-methylpiperidin-4-yl)pyridin-2(1H)-one], the concentration for half-maximal inhibition (IC50) was 100 to 1000 nM in experiment [1] (A-427, read-out: A427 pCDC2 MSD IC50) and below 10 nM at Wee1 kinase domain (4 hours at 25° C).
